Test results from patent US6433174B1, “Process for producing novel naphthyridine derivatives” (Nippon Kayaku Kabushiki Kaisha, priority 1998, dated 2002).

Legend:
NK-2 receptor [1] = target: T1, NK-2 receptor (Rattus norvegicus, UniProt P16610); test: NK-2 receptor binding test (125I-neurokinin A, rat duodenum membrane preparation); conditions: rat duodenum membranes, 125I-neurokinin A 1×10^−9 M, room temperature, 90 minutes; read-out: IC50 of the drug against radioactive neurokinin A binding
T1 construct: from tissue; host or cells: rat duodenum membrane preparation
T1 sequence (P16610 1-390): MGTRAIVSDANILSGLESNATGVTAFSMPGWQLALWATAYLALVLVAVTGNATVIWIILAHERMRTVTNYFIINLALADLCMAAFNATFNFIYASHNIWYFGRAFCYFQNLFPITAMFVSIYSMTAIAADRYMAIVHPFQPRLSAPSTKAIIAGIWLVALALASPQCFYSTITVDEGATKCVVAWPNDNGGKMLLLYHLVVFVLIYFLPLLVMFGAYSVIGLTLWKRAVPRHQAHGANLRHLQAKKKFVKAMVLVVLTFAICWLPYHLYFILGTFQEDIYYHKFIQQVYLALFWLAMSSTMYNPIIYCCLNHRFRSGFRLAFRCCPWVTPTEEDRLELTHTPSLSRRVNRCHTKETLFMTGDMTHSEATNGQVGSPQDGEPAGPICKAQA
Description: NK-2 Receptor Binding Test
The duodenum taken out from a Fischer-strain male rat was homogenized in a 50 mM tris-hydrochloride buffer solution containing ethylenediaminetetracetic acid (1 mM), and 48,000 g of the obtained homogenate was subjected to centrifugal sedimentation at 4° C. for 20 minutes. The produced pellets were washed thrice with 10 times as much volume of a 50 mM trishydrochloride butter solution containing KCl (300 mM) and ethylenediaminetetracetic acid (10 mM), and the obtained membrane preparation was suspended in 10 times as much volume of a 50 mM tris-hydrochloride buffer solution (pH 7.4) and kept at −80° C. till it was offered to use. The above membrane preparation (20 mg/ml) was incubated with a radioactive legand 125 I-neurokinin A (1×10^−9 M) in a 50 mM tris-hydrochloride buffer solution (pH 7.4) containing bovine serum albumin (10 mg/ml), bacitracin (40 μg/ml), leupepsin (4 μg/ml), chymostatin (50 μg/ml), antipain (1×10^−4 M) and MnCl2 (1 mM) in the presence of a drug or its solvent at room temperature for 90 minutes. The reaction solution was suction-filtered by a GE/B filter pretreated with polyethylene-imine (0.1%), and was washed with 3 ml of a 50 mM tris-hydrochloride buffer solution (pH 7.4) containing MnCl2 (1 mM), and the radioactivity in the filter was measured by a gamma counter. With the radioactivity in the presence of Nle10 eurokinin A (4-10) (3×10^−6 M) being taken as non-specific binding, the specific binding inhibition rate by the drug was given as control in the case of a solvent, and the 50% inhibition concentration (IC50) of the drug was determined from the linear regression.

NK-2 receptor [2] = target: T2, NK-2 receptor (Cavia porcellus, UniProt Q64077); test: Inhibitory action against stricture of airway caused by NK-2 receptor stimulation and antigen inhalation; assay type: in vivo; conditions: guinea pig
T2 construct: Specimens were prepared by joining 5 slices from said trachea; from tissue; host or cells: isolated guinea pig trachea (A2); anesthetized guinea pig airway in vivo (A5)
T2 sequence (Q64077 1-402): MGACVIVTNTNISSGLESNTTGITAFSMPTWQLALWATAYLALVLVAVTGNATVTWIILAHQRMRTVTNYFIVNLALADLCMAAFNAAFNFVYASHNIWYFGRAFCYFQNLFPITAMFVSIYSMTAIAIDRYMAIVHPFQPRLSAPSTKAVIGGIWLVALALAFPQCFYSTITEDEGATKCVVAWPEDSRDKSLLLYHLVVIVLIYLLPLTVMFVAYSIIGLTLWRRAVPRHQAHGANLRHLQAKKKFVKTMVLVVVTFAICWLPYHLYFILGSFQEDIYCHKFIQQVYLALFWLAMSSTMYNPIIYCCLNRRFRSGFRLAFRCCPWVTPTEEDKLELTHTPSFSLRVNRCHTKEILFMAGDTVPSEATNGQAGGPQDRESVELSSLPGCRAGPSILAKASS
Description: Inhibitory Action Against Stricture of Airway
The non-treated Hartley strain male guinea pigs and the Hartley strain male guinea pigs which had been actively sensitized by subcutaneous administration of 300 mg/kg of ovalbumin 14 to 21 days ago were used. A tube was inserted into the trachea of each guinea pig anesthetized with pentobarbital, and positive pressure breathing was conducted at a rate of 60 times of breathing per minute (10 ml/kg) by an artificial breathing system. Lateral pressure of the tube in the trachea was measured as an index of stricture of airway. Spontaneous respiration was inhibited by the administration of succinylcholine. To the non-treated guinea pigs, 2 μmol of Nle10 neurokinin A (4-10)—a specific stimulant to NK-2 receptor—was intravenously injected repeatedly at intervals of 10 minutes. After the induced airway restriction reaction was stabilized, the drug was administered intravenously or perorally. 3 minutes after intravenous administration or 50 minutes after peroral or intraduodenal administration, Nle10 neurokinin A (4-10) was again intravenously injected. The inhibition rate by the drug was determined with the degree of airway restriction before drug administration as control.
15 minutes after intravenous administration of 4.6 μmol/kg of phosphoramidon to each actively sensitized guinea pig, it was forced to inhale, for 2 minutes, an aerosol of an antigen ovalbumin solution (2 mg/ml) generated by a supersonic nebulizer to induce stricture of the airway. The drug or its solvent was administered perorally 50 minutes before the antigen inhalation. 8 minutes after antigen inhalation of the solvent-administered group, the inhibition rate of the drug-administered group was determined with the degree of airway stricture of the solvent-administered group as control.

Mouse = test: Toxic action in mouse, intravenous administration; assay type: in vivo
Excerpt: Toxicity of the novel naphthyridine derivatives of the present invention was examined.

NK-3 receptor = target: T3, NK-3 receptor (Cavia porcellus, UniProt P30098); test: Antagonistic action against NK-3 receptor: senktide-induced contraction of isolated guinea pig ileum; assay type: cell-based; conditions: senktide 1×10^−9 M, 35-minute incubation, read-out: IC50 of the drug against contraction by senktide
T3 construct: its ileum was extracted; An approximately 3 cm long specimen was prepared therefrom; from tissue; host or cells: isolated guinea pig ileum
T3 sequence (P30098 1-440): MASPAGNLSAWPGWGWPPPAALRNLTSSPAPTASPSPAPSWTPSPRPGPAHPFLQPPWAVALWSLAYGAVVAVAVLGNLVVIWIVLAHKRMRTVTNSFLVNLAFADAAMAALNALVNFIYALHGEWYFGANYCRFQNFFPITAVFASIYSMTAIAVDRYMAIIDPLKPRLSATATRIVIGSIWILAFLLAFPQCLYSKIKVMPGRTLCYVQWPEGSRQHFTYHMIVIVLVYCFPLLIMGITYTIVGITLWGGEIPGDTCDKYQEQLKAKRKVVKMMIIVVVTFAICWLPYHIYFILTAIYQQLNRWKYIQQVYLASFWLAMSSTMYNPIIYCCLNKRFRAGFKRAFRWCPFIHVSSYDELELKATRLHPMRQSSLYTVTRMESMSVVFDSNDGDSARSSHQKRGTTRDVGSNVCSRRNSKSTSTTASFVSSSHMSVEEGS
Description: Antagonistic Action Against NK-3 Receptor
A Hartley-strain male guinea pig was caused to die by head contusion and blood depletion, and its ileum was extracted. An approximately 3 cm long specimen was prepared therefrom, and it was suspended with a tension of 0.5 gram-weight in a 15 ml Magunus tank containing a 37° C. Kregs-Henseleit liquid through which a mixed gas of 95% O2 and 5% CO2 had been passed. A Krebs-Henseleit liquid containing atropin (1×10^−6 M) and indomethacin (5×10^−6 M) was used to obviate the participation of endogenous acetylcholine and prostaglandin. Senktide (1×10^−9 M), which is a specific stimulant of NK-3 receptor, was acted repeatedly at intervals of 50 minutes. After contraction by senktide was stabilized, the drug was added in various concentrations and, after 35-minute incubation, senktide was again acted. The contraction inhibition rate by the drug was determined with the amount of contraction just before the addition of the drug as control, and the 50% inhibition concentration (IC50) of the drug was determined from the linear regression.

NK-2 receptor [3] = target: T2, NK-2 receptor; test: Antagonistic action against NK-2 receptor: neurokinin A-induced contraction of isolated guinea pig trachea; assay type: cell-based; conditions: drug concentration 5 × 10^−9 M, neurokinin A 1×10^−9 M, 110-minute incubation, read-out: Inhibition rate of neurokinin A-induced contraction
Description: Antagonistic Action Against NK-2 Receptor
A Hartley-strain male guinea pig was caused to die by head contusion and blood depletion, and its trachea was extracted. Specimens were prepared by joining 5 slices from said trachea, and they were suspended with a tension of 0.5 gram-weight in a 15-ml Magunus tank containing a 37° C. Krebs-Henseleit liquid through which a mixed gas of 95% O2 and 5% CO2 had been passed. A Krebs-Henseleit liquid containing indomethacin (5×10^−6 M) was used to obviate the participation of endogenous prostaglandin. After confirming the maximum contraction of each specimen by methacholine, a drug or its solvent was added and, after 110-minute incubation, neurokinin A (1×10^−9 M) was acted thereto. Phosphoramidon (1×10^−5 M) was added for inhibiting decomposition of neurokinin A 30 minutes before the addition of neurokinin A and (±) CP-96345 (3×10^−7 M) was added for eliminating the participation of NK-1 receptor 20 minutes before the addition of neurokinin A. The contraction by neurokinin A was first determined as a ratio to the maximum contraction of each specimen, and then the inhibition rate by the drug was determined with the amount of contraction of the solvent-added specimen as control.

NK-1 receptor = target: T4, NK-1 receptor (Cavia porcellus, UniProt P30547); test: Antagonistic action against NK-1 receptor: Methyl Substance P-induced contraction of isolated guinea pig ileum; assay type: cell-based; conditions: Methyl Substance P 1×10^−9 M, 35-minute incubation, read-out: IC50 of the drug against contraction by Methyl Substance P
T4 construct: its ileum was extracted; An approximately 3 cm long specimen was prepared therefrom; from tissue; host or cells: isolated guinea pig ileum
T4 sequence (P30547 whole entry): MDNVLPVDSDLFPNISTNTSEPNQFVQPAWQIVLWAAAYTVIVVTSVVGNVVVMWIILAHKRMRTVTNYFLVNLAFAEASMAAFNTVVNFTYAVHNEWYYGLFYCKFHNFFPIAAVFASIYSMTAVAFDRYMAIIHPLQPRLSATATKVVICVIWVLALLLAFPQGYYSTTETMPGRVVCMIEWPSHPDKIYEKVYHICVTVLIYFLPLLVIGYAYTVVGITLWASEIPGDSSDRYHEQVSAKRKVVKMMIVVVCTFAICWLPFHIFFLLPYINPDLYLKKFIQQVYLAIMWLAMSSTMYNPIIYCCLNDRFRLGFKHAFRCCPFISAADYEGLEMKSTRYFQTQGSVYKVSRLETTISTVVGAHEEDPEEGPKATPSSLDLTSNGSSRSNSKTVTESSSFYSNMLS
Description: Antagonistic Action Against NK-1 Receptor
A Hartley strain male guinea pig was caused to die by head contusion and blood depletion, and its ileum was extracted. An approximately 3 cm long specimen was prepared therefrom, and it was suspended with a tension of 0.5 gram-weight in a 15 ml Mogunus tank containing a 37° C. Krebs-Henseleit liquid through which a mixed gas of 95% O2 and 5% CO2 had been passed. A Krebs-Henseleit liquid containing atropin (1×10^−6 M) and indomethacin (5×10^−6 M) was used to get rid of the participation of endogenous acetylcholine and prostaglandin. Methyl Substance P (1×10^−9 M), which is a specific stimulant of NK-1 receptor, was acted repeatedly at intervals of 40 minutes. After contraction by Methyl Substance P was stabilized, the drug was added in various concentrations and, after 35-minute incubation, Methyl Substance P was again acted. The contraction inhibition rate by the drug was determined with the contraction just before the addition of the drug as control, and the 50% inhibition concentration (IC50) of the drug was calculated from the linear regression.

Row | Structure (SMILES) | IC50 (NK-2 receptor [1]) [nM] | Inhibition rate (%) NK-2 receptor stimulation and antigen inhalation (NK-2 receptor [2]; 1 μmol/kg, Intravenous) [%] | Inhibition rate (%) NK-2 receptor stimulation and antigen inhalation (NK-2 receptor [2]; 8 μmol/kg, Peroral) [%] | Inhibition rate (%) NK-2 receptor stimulation and antigen inhalation (NK-2 receptor [2]; 10 μmol/kg, Peroral) [%] | Toxicity by intravenous administration of the drug (Mouse; 22 μmol/kg intravenous) | Toxicity by intravenous administration of the drug (Mouse; 65 μmol/kg intravenous) | IC50 (NK-3 receptor) [nM] | inhibition at 0.005 µM (NK-2 receptor [3]) [%] | IC50 (NK-1 receptor) [nM] | Inhibition rate (%) NK-2 receptor stimulation and antigen inhalation (NK-2 receptor [2]; 0.5 μmol/kg, Intravenous) [%]
1 | CN(CC(CCN1CCc2nc3c(cc2C1)CCCC3)c1ccc(Cl)c(Cl)c1)C(=O)c1ccccc1 (stereo not drawn) [(2)-b] | 56 | 94.2 | 67.2 | 54.1 | None | None | 180 | 89.1 | 470 | 
2 | CN(CC(CCN1CCc2nc3ccccc3c(-c3ccccc3)c2C1)c1ccc(Cl)c(Cl)c1)C(=O)c1ccccc1 (stereo not drawn) [(3)-b] | 70 |  |  |  |  |  |  |  |  | 70.0
3 | CC(=O)Nc1c2c(nc3ccccc13)CCN(CCC(CN(C)C(=O)c1ccccc1)c1ccc(Cl)c(Cl)c1)C2 (stereo not drawn) [(6)-b] | 18 |  | 81.5 |  |  | None |  |  |  | 100.0
